Entries after “also recorded” stand apart in the source; their conditions may differ. No end group written: not given here.
Columns and labels:
[1] = Fear-potentiated startle after ICV TUF1 peptide infusion; type: in vivo, rat; settings: adult male rats
Method: (§1) a) Intra-cerebroventricular (ICV) Cannulation Male Sprague-Dawley rats weighing 250-400 grams were anesthetized with ketamine (100 mg/kg) and xylazine (7 mg/kg) and placed in a stereotaxic device (David Kopf Instruments Corp., Tunjunga, Calif.) using atraumatic ear bars. An incision of the skin overlying the skull was made and anchor screws were inserted into the skull. Burr holes were drilled to allow the guide cannula to pass into the brain. The guide cannula (22-gauge, C313G; Plastics One, Roanoke, Va.) was placed at 0 mm posterior, 1.2 mm lateral and 3.5 mm ventral to bregma. The cannula was affixed using epoxy glue (Loctite 444; McMaster-Carr, Chicago, Ill.) followed by dental acrylic (Hygienic perm reline & repair resin, Type II, Class I; Henry Schein, Inc., Melville, N.Y.). The cannula was sealed and kept open by insertion of a ‘dummy’ cannula. […]
(§2) For fear potentiated startle, shock sensitization, and prepulse inhibition testing, animals were trained and tested in four identical 7.5 cm×9 cm×17 cm stabilimeter devices. […] Shock intensity was measured with a 1-kΩ resistor across a differential channel of an oscilloscope in series with a 100-kΩ resistor connected between two floor bars in each cage. Current was defined as the RMS voltage across the resistor and calculated in mA as 0.707×0.5 ×peak-to-peak voltage. […]

COS7 cells = assay: COS7 cell survival following serum deprivation (Trypan blue uptake); type: cell-based; settings: 5 nM peptide
Method: To gain insight into the binding of TUF1[43-54] peptide and p75^NTR, serum deprivation was used as a stressor to COS7 cells transfected with pCMV-SPORT6-p75 expression vector. COS7 cells were seeded at 15,000 cells/well in 12-well plates, transfected with 300 ng pCMV-eGFP (control) or 300 ng pCMV-SPORT6-p75, and incubated overnight. Cells were then incubated in serum-free medium or serum-free medium supplemented with 5 nM TUF1[43-54]. Cells were assessed for Trypan blue dye uptake at 24, 48, and 72 hours.
Immediately after removing growth medium, cells were rinsed with PBS and incubated in 100 μl 0.4% Trypan blue dye diluted in PBS. Images of cells were captured at 10× magnification using an inverted microscope equipped with a CCD camera. Trypan blue-positive cells were counted using Adobe Photoshop CS3 (Adobe Systems Inc., San Jose, Calif.). Graphs and statistics were performed using Prism Graphpad 4.0 (GraphPad Software Inc., San Diego, Calif.).

[2] = tested on: Cortical neurons and glia; assay: Glutamate-induced excitotoxicity in cultured cortical neurons; type: cell-based, mice; settings: 500 μM glutamate, then 0.2-1.8 μM peptide for 24 hours
Method: To assess the trophic effect of TUF1 peptide on primary culture neurons, we assayed the effect of TUF1 supplementation on glutamate-induced excitotoxicity in neuronal cultures. Cortical neurons and glia were cultured from newborn mice for seven days. Cultures were then treated with 500 μM glutamate (diluted in N2tox solution, Invitrogen Corp., Carlsbad, Calif.) and incubated at 37° C. for ten minutes. Glutamate was removed from cultures by two washes with EBSS media (Invitrogen Corp., Carlsbad, Calif.). Cultures were then incubated in EBSS media supplemented with 0.0 μM, 0.2 μM, 0.4 μM, 0.9 μM, or 1.8 μM TUF1 peptide for 24 hours. Surviving neurons from cultures were manually counted by Trypan Blue exclusion using an inverted microscope. Values are means±SD, n=6-8/group.

[3] = Food consumption after ICV TUF1 peptide infusion; type: in vivo; settings: rat, ICV administration
Method: a) Intra-cerebroventricular (ICV) Cannulation Male Sprague-Dawley rats weighing 250-400 grams were anesthetized with ketamine (100 mg/kg) and xylazine (7 mg/kg) and placed in a stereotaxic device (David Kopf Instruments Corp., Tunjunga, Calif.) using atraumatic ear bars. An incision of the skin overlying the skull was made and anchor screws were inserted into the skull. Burr holes were drilled to allow the guide cannula to pass into the brain. The guide cannula (22-gauge, C313G; Plastics One, Roanoke, Va.) was placed at 0 mm posterior, 1.2 mm lateral and 3.5 mm ventral to bregma. The cannula was affixed using epoxy glue (Loctite 444; McMaster-Carr, Chicago, Ill.) followed by dental acrylic (Hygienic perm reline & repair resin, Type II, Class I; Henry Schein, Inc., Melville, N.Y.). The cannula was sealed and kept open by insertion of a ‘dummy’ cannula.
b) TUF1 Peptide Infusion 0 μg, 1 μg, or 10 μg TUF1 peptide diluted in artificial cerebrospinal fluid (aCSF, Harvard Apparatus, Holliston, Mass.) was injected into the brain through the in-dwelling cannulae immediately prior to behavioral measurement (described below). […]
Food intake, in grams, was measured by weighing food in the hopper daily for the two days prior to drug infusion and for the drug infusion days, and calculating the amount eaten by subtracting each day's food weight from that of the previous day.

[4] = Prepulse inhibition of startle after ICV TUF1 peptide infusion; type: in vivo, rat; settings: adult male rats, 1.0 μg or 10 μg ICV
Method: as §1, §2

AYKSYVRALPLL [TUF1[43-54]]
shock reactivity ([1]; 1.0 μg or 10 μg ICV): No effect | fear potentiated startle ([1]; 1.0 μg or 10 μg via lateral ventricle cannulae, vs control subjects): reduced fear potentiated startle | survival benefit of peptide in presence of p75^NTR (COS7 cells; COS7 cells transfected with pCMV-SPORT6-p75, serum deprivation): removed the survival benefit | cell survival / cell death following serum deprivation (COS7 cells; Trypan blue-positive cells at 24, 48, 72 hours, control-transfected COS7 cells): promotes cell survival; also recorded: reduces in vitro cell death following serum deprivation | neural excitotoxicity induced by glutamate [2]: reduces neural excitotoxicity induced by glutamate | food consumption [3]: influences food consumption | pre-pulse inhibition [4]: No effect
